# Biological target: T1, recombinant human IDO1 enzyme (Homo sapiens, UniProt P14902)
# T1 construct: purchased NTRC (Netherlands Translational Research Center) NTRC-hIDO-10K
# Assay: Test of hIDO1 for enzymatic activity in vitro (NFK Green fluorescence)
# Assay type: biochemical
# Protocol: 1. Test of hIDO1 for Enzymatic Activity In Vitro
# 1.1 Purpose of Experiment:
# Changes in production of NFK, an IDO1 enzymatic metabolite were detected with NFK Green™ fluorescent molecules. With an IC50 value of a compound as an index, an inhibitory effect of the compound on recombinant human IDO1 enzyme was evaluated.
# The compound was diluted with dimethyl sulfoxide (DMSO) to 1 mM, with 10 gradients, each 3-fold dilution, in duplicate. 48 μL of 50 mM phosphate buffer, having pH of 6.5, was transferred by the Bravo automatic liquid processing platform to the compound plate. Then 2 μL of an already diluted compound/DMSO solution was added. After even mixing, 10 μL of the resultant mixture was transferred to the enzymatic reaction plate.
# IDO1 enzyme was diluted to 20 nM in a reaction buffer (50 mM phosphate buffer with pH of 6.5, 0.1% of Tween-20, 2% of glycerol, 20 mM ascorbic acid, 20 μg/ml catalase, and 20 μM methylene blue), 20 μL of the diluted IDO1 enzyme was transferred to the enzymatic reaction plate, and incubated at 23° C. for 30 minutes. 10 μL of 400 μM L-type tryptophan substrate was added to start reaction. The incubation lasted at 23° C. for 90 minutes. 10 μL of NFK Green™ fluorescent dye was added. The resultant mixture was sealed with the plate sealing film. After incubation at 37° C. for 4 hours, an Envision multi-functional plate reader was used for reading (Ex 400 nm/Em 510 nm).
# A reference well to which the IDO1 enzyme was added but no compound was added was set to have an inhibition rate of 0%, and a reference well to which no IDO1 enzyme was added was set to have an inhibition rate of 100%. Data was analyzed with XLFit 5 to calculate an IC50 value of the compound.
# T1 sequence (P14902 whole entry): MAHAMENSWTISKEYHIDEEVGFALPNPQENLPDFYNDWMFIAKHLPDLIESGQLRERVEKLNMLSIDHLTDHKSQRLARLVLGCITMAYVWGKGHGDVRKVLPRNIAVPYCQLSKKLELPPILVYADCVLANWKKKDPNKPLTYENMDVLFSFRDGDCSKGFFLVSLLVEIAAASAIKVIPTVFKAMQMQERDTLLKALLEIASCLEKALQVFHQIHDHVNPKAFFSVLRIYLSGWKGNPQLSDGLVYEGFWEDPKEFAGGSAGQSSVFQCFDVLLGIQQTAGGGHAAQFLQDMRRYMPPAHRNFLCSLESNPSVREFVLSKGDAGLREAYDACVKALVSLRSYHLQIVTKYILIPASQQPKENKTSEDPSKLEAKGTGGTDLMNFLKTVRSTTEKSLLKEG
row,IC50 [nM],Compound
1,> 10000,O/N=C(\Nc1ccc(F)c(Br)c1)c1nonc1O [Compound 0026]
2,> 10000,COc1nonc1/C(=N/C#N)Nc1ccc(F)c(Br)c1 [Compound 0069]
3,1380,NS(=O)(=O)NC1(COc2nonc2/C(=N/O)Nc2ccc(F)c(Br)c2)CC1 [Compound 0070]
4,799,CC(COc1nonc1/C(=N/O)Nc1ccc(F)c(Br)c1)NS(N)(=O)=O (stereo not drawn) [Compound 0071]
5,> 10000,NOc1nonc1/C(=N/O)Nc1ccc(F)c(Br)c1 [Compound 0077]
6,> 10000,CC(C)(C)OC(=O)NOc1nonc1/C(=N/O)Nc1ccc(F)c(Br)c1 [Compound 0078]
7,981,NS(=O)(=O)NC(COc1nonc1/C(=N/O)Nc1ccc(F)c(Br)c1)c1ccccc1 (stereo not drawn) [Compound 0089]
8,537,COc1nonc1/C(=N/O)Nc1ccc(F)c(C#N)c1 [Compound 0103]
9,1300,O=S(=O)(NCCOc1nonc1/C(=N/O)Nc1ccc(F)c(Br)c1)c1ccccc1 [Compound 0107]
10,387,O=C(NCCOc1nonc1/C(=N/O)Nc1ccc(F)c(Br)c1)c1ccccc1 [Compound 0108]
11,2070,CC(CNS(N)(=O)=O)Oc1nonc1/C(=N/O)Nc1ccc(F)c(Br)c1 (stereo not drawn) [Compound 0119]
12,616,N#Cc1cc(N/C(=N\O)c2nonc2OCCNS(N)(=O)=O)ccc1F [Compound 0120]
13,188,NS(=O)(=O)NCCOc1nonc1/C(=N/O)Nc1ccc(F)c(C(F)(F)F)c1 [Compound 0121]
14,565,NS(=O)(=O)NCCOc1nonc1/C(=N/O)Nc1ccc(F)c(C2CC2)c1 [Compound 0122]
15,1030,O/N=C(\Nc1ccc(F)c(Br)c1)c1nonc1OC1CCOC1 (stereo not drawn) [Compound 0124]
16,601,COCCCCOc1nonc1/C(=N/O)Nc1ccc(F)c(Br)c1 [Compound 0128]
17,426,O/N=C(\Nc1ccc(F)c(Br)c1)c1nonc1OCC1COC1 [Compound 0129]
18,702,O/N=C(\Nc1ccc(F)c(Br)c1)c1nonc1OCCc1ccccn1 [Compound 0131]
19,1030,CN(CCOc1nonc1/C(=N/O)Nc1ccc(F)c(Br)c1)Cc1ccccc1 [Compound 0133]
20,7150,O/N=C(\Nc1ccc(F)c(Br)c1)c1nonc1SCc1ccccc1Cl [Compound 0134]
21,3290,O/N=C(\Nc1ccc(F)c(Br)c1)c1nonc1OCC(F)(F)F [Compound 0135]
22,5710,O/N=C(\Nc1ccc(F)c(Br)c1)c1nonc1SC1CCCCC1 [Compound 0137]
23,364,C=CCSc1nonc1/C(=N/O)Nc1ccc(F)c(Br)c1 [Compound 0138]
24,197,CN(C)CCOc1nonc1/C(=N/O)Nc1ccc(F)c(Br)c1 [Compound 0140]

row,IC50 [nM],Compound
1,452,CS(=O)(=O)N1CC(COc2nonc2/C(=N/O)Nc2ccc(F)c(Br)c2)C1 [Compound 0141]
2,1310,CS(=O)(=O)N1CCC(COc2nonc2/C(=N/O)Nc2ccc(F)c(Br)c2)CC1 [Compound 0142]
3,> 10000,O/N=C(\Nc1ccc(F)c(Br)c1)c1nonc1OCc1c[nH]cn1 [Compound 0143]
4,> 10000,O/N=C(\Nc1ccc(F)c(Br)c1)c1nonc1OCc1cncs1 [Compound 0144]
5,> 10000,O/N=C(\Nc1ccc(F)c(Br)c1)c1nonc1Oc1ccc(Cl)cc1 [Compound 0150]
6,5700,NS(=O)(=O)NCCOc1nonc1/C(=N/O)Nc1cc(F)c(Cl)c(F)c1 [Compound 0156]
7,4360,COc1c(F)cc(N/C(=N\O)c2nonc2OCCNS(N)(=O)=O)cc1F [Compound 0158]
8,3830,NS(=O)(=O)NCCOc1nonc1/C(=N/O)Nc1ccc(Cl)c(Cl)c1 [Compound 0160]
9,928,NS(=O)(=O)NCCOc1nonc1/C(=N/O)Nc1ccc(F)c(F)c1 [Compound 0162]
10,594,O=C1NCCN1CCOc1nonc1/C(=N/O)Nc1ccc(F)c(Br)c1 [Compound 0179]
11,> 10000,CCS(=O)(=O)CCOc1nonc1/C(=N/O)Nc1ccc(F)c(Br)c1 [Compound 0180]
12,673,CN(C)CCN(C)CCOc1nonc1/C(=N/O)Nc1ccc(F)c(Br)c1 [Compound 0182]
13,1120,CCN(CC)C(=O)COc1nonc1/C(=N/O)Nc1ccc(F)c(Br)c1 [Compound 0183]
14,4830,NS(=O)(=O)NCCOc1nonc1/C(=N/O)Nc1ccc(Cl)c(C(F)(F)F)c1 [Compound 0184]
15,590,NS(=O)(=O)NCCOc1nonc1/C(=N/O)Nc1cc(F)c(F)c(Br)c1 [Compound 0189]
16,945,NS(=O)(=O)NCCOc1nonc1/C(=N/O)Nc1ccc(F)c(Cl)c1 [Compound 0190]
17,466,NS(=O)(=O)N[C@H]1C[C@H](Oc2nonc2/C(=N/O)Nc2ccc(F)c(Br)c2)C1 [Compound 0222]
18,203,O=S(=O)(NCCSc1nonc1/C(=N/O)Nc1ccc(F)c(Br)c1)C1CC1 [Compound 0230]
19,373,CN(C)S(=O)(=O)NCCSc1nonc1/C(=N/O)Nc1ccc(F)c(Br)c1 [Compound 0232]
20,846,NS(=O)(=O)NCC[S+]([O-])c1nonc1/C(=N/O)Nc1ccc(F)c(Br)c1 (stereo not drawn) [Compound 0239]
21,72.6,CCNC(=O)CSc1nonc1C(=NO)Nc1ccc(F)c(Br)c1 [Compound 0300]
22,125,O=C(CSc1nonc1/C(=N/O)Nc1ccc(F)c(Br)c1)NCC(F)(F)F [Compound 0301]
23,88,O=C(CSc1nonc1/C(=N/O)Nc1ccc(F)c(Br)c1)NCC(F)F [Compound 0302]

row,Compound,IC50 [nM]
1,CP(C)(=O)NCCOc1nonc1/C(=N/O)Nc1ccc(F)c(Br)c1 [Compound 0149],290
